Test results from patent publication US5108996A, “19-nor-3-keto steroids” (Roussel Uclaf, priority 1989, dated 1992).

Experiments:
[1] = test system: lipid peroxidation (MDA formation) in rat liver microsomes; test: MDA formation triggered enzymatically by NADPH and carbon tetrachloride in liver microsomes of phenobarbital-pretreated rats (antioxidant activity); assay type: biochemical; conditions: NADPH/CCl4
Description: (§1) The antioxidant activity was tested in vitro by the test of formation of malondialdehyde (MDA) which measures lipid peroxidation triggered: either a) non-enzymatically by ferrous sulfate, in 1) brain homogenates, or 2) rat liver microsomes or b) enzymatically by NADPH and carbon tetrachloride in rat liver microsomes.
2-MDA formation was measured on liver microsomes of rats pretreated with phenobarbital (80 mg/kg in 3 i.p. injections), prepared as described above. The microsomes were incubated for 15 minutes at 37° C. in 1 ml containing 0.1M pH 7.4 phosphate buffer, 1 mg of microsomal protein, 5 microliters of ethanol containing or not containing the test product and 5 microliters of carbon tetrachloride (5.5 mM final) after the addition of 50 microliters of NADPH solution in the phosphate buffer (1 mM final). The reaction was stopped and the assay was then performed under the conditions described above.

[2] = test system: lipid peroxidation (MDA formation) in brain homogenates; test: MDA formation triggered non-enzymatically by ferrous sulfate in rat brain homogenates (antioxidant activity); assay type: biochemical, S-D rat; conditions: brain homogenate, 60 min 37° C
Description: as §1
1.1-MDA formation was measured on 10-fold diluted (V/V) homogenates of brains of S-D (200 g), prepared in Krebs buffer pH 7.4 by the conditions described in J. Biol. Chem. Vol., 262 (1987), p. 10438 to 10440. 1 ml of homogenate was incubated for 60 minutes at 37° C. in the presence of 25 microliters of ethanol or water or a mixture of the two, depending on the product, containing or not containing the test product, after the addition of 25 microliters of ferrous sulfate solution prepared immediately before use in water outgassed with argon ([…]). 0.25 ml of incubated mixture was withdrawn and 1.5 ml of 1% strength phosphoric acid, 0.25 ml of a solution containing 200 microliters of deferoxamine (Desferal®, Ciba Geigy) in water, 10 microliters of butylated hydroxytoluene (BHT) at a concentration of 8.7 mg/ml in ethanol and 0.5 ml of thiobarbituric acid (TBA) at a concentration of 0.6% in water were added. The mixture was heated to 100° C. for 45 minutes and cooled. 4 ml of n-butanol were added and the mixture was centrifuged for 15 minutes at 4000 rpm and the OD of the supernatant fraction was then read at 535 nm. The reaction blanks in the absence of Fe^++ were incubated under the same conditions. The percentage inhibition was calculated as follows: […]

[3] = test system: lipid peroxidation (MDA formation) in rat liver microsomes; test: MDA formation triggered non-enzymatically by ferrous sulfate in rat liver microsomes (antioxidant activity); assay type: biochemical, S-D rat; conditions: 15 min 37° C
Description: as §1
1.2-MDA formation was measured on liver microsomes of S-D rats (200 g)
prepared from the fraction sedimented at 100,000 G of a liver homogenate
in a sucrose buffer, of which the fraction remaining insoluble at 100,000
G in 100 mM sodium pyrophosphate buffer pH 7.4 was used and which was
homogenized in 100 mM sodium phosphate buffer pH 7.4 containing 20% of
glycerol and then stored at -80° C.
The microsomes were incubated for 15 minutes at 37° C. in 1 ml containing 35 mM Tris-HCl buffer/0.1M KCl pH 7.4, 1 mg of microsomal protein, 5 microliters of ethanol containing or not containing the test product and 250 microliters of ascorbate solution in the Tris buffer (0.5 mM final), after the addition of 250 microliters of ferrous sulfate prepared immediately before use in the Tris buffer ([…]). The reaction was stopped by adding 2 ml of a 1M solution of trichloroacetic acid in 0.25M hydrochloric acid containing 0.4% of thiobarbituric acid. The mixture was heated to 85° C. for 25 minutes, cooled and centrifuged for 15 minutes at 3500 rpm, and the OD of the supernatant fraction was then read at 535 nm. The reaction blanks in the absence of Fe^++ were performed at the same time and the percentage inhibition was calculated as above.

[4] = test system: arachidonic acid-induced plantar oedema; test: Arachidonic acid-induced plantar oedema (anti-inflammatory activity); assay type: in vivo, Sprague-Dawley male rat; conditions: for Change in volume of the foot 1 hour after AA (mean ± s.e.m.): controls 0.58 ± 0.03; for % inhibition: oedema, relative to control
Description: The anti-inflammatory activity was assessed in vivo by measurement of the anti-oedematous activity in the test of arachidonic acid-induced plantar oedema described by Di Martino et al. (Agents and Actions, 1987 21 3/4 303). The experimental animals were Sprague-Dawley strain SPF male rats weighing 150 to 170 g (Iffa Credo).
This test was performed on groups of 8 male rats weighing 130 to 150 g, fasted for 16 hours. Arachidonic acid was injected under the plantar aponeurosis of one hindfoot at a dose of 0.2 mg in a volume of 0.1 ml. The volume of the foot was measured using a water plethysmometer before and 1 hour after the injection of arachidonic acid. The difference between these two volumes represented the degree of inflammation. The animals were treated with the test products or the vehicle alone at the same time as the injection of arachidonic acid. The test products were administered orally in a volume of 4 ml/kg after being suspended in 0.5% strength methyl cellulose. All the experiments were carried out with dexamethasone administered orally at a dose of 0.5 mg/kg as reference product.
The results were expressed as a change in volume of the foot 1 hour after the injection of arachidonic acid (AA) in the absence or in the presence of the test product administered at different doses. Statistical interpretation of the results was performed according to Dunnett's test (*p<[…]) or according to the Mann-Whitney test (^o p<0.05-^oo p<0.01). For each dose administered orally, the percentage inhibition of the oedema by the test product was calculated relative to the control.

[5] = test system: ferric nitrilotriacetate (NTA-Fe+++) intoxication in rats; test: Detoxifying activity in vivo: mortality induced in rats by ferric nitrilotriacetate (NTA-Fe+++) intoxication; parameters: species or system Wistar male rat; conditions: 5 mg/kg i.p. 30 minutes before 15 mg/kg of poison (NTA-Fe+++, mg of iron/kg); none alive after 4 hours with poison alone
Description: The detoxifying activity after intoxication associated with lipid peroxidaton was tested for by measurement of the mortality induced in rats by ferric nitrilotriacetate (NTA-Fe^+++) intoxication. A solution of NTA-Fe^+++ complex was prepared immediately before use, suspended in sesame oil and injected intraperitoneally at doses of 5, 10 or 15 mg of iron/kg of body weight into non-fasted Wistar male rats weighing approximately 200 g. The survival rate of rats which received a prior injection of the test product at a dose of 5 mg/kg intraperitoneally, 30 minutes before the injection of 15 mg/kg of poison was determined. Whereas none of the animals treated with the poison alone survived after 4 hours, 20% of the animals pretreated with the product of Example 2 were still alive 15 days later.

CCN(CC)c1ccc(N(CC)CC)c(N2CCN(CC#C[C@]3(O)CC[C@H]4[C@@H]5CCC6=CC(=O)CCC6=C5[C@@H](c5ccc(N(C)C)cc5)C[C@@]43C)CC2)n1 [Example 4, 17α-[3-{4-[3,6-bis(diethylamino)-2-pyridyl]-1]-piperazinyl}-1-propynyl]-11β-[4-(dimethylamino)-phenyl-Δ^4,9-estadiene-17β-ol-3-one] gave a percentage of inhibition ([1]; 1 × 10^-6 M) of 48 ± 3, a percentage of inhibition ([1]; 5 × 10^-6 M) of 85 ± 2 and a percentage of inhibition ([2]; 1 × 10^-4 M) of 58.9 ± 10.9. The percentage of inhibition ([2]; 1 × 10^-5 M) was 48.6 ± 6.2, the percentage of inhibition ([2]; 5 × 10^-4 M) was 71.8 ± 10.2 and the percentage of inhibition ([3]; 1 × 10^-5 M) was 99.5. The percentage of inhibition ([3]; 1 × 10^-6 M) was 70 ± 2, the percentage of inhibition ([3]; 1 × 10^-7 M) was 0 ± 2 and the percentage of inhibition ([3]; 5 × 10^-6 M) was 99.4.

CN(C)c1ccc([C@H]2C[C@@]3(C)[C@@H](CC[C@@]3(O)C#CCN3CCN(c4cc(N5CCCC5)nc(N5CCCC5)n4)CC3)[C@@H]3CCC4=CC(=O)CCC4=C32)cc1 [Example 1, 11β-[4-(dimethylamino)-phenyl]-17α-[3-{4-[2,6-bis(1-pyrrolidinyl)-4-pyrimidinyl]-1-piperazinyl}-1-propynyl]-Δ^4,9-estradiene-17β-ol-3-one] was tested, and the percentage of inhibition ([1]; 1 × 10^-5 M) was 72 ± 3, the percentage of inhibition ([1]; 1 × 10^-6 M) was 14 ± 4 and the percentage of inhibition ([1]; 5 × 10^-6 M) was 58 ± 5. The percentage of inhibition ([2]; 1 × 10^-4 M) was 42.6 ± 7.5, the percentage of inhibition ([2]; 1 × 10^-5 M) was 9.9 ± 6.4 and the percentage of inhibition ([2]; 5 × 10^-4 M) was 47.5 ± 8.8. The percentage of inhibition ([3]; 1 × 10^-5 M) was 76 ± 0.8, the percentage of inhibition ([3]; 1 × 10^-6 M) was 4 ± 0.6 and the percentage of inhibition ([3]; 5 × 10^-6 M) was 47.

CCN(CC)c1ccc(N2CCN(CC#C[C@]3(O)CC[C@H]4[C@@H]5CCC6=CC(=O)CCC6=C5[C@@H](c5ccc(N(C)C)cc5)C[C@@]43C)CC2)nc1N(CC)CC [Example 3, 11β-[4-(dimethylamino)-phenyl]-17α-[3-{4-[5,6-bis(diethylamino)-2-pyridyl]-1-piperazinyl}1-propynyl]-Δ^4,9-estradiene-17β-ol-3-one] gave a percentage of inhibition ([1]; 1 × 10^-5 M) of 97, a percentage of inhibition ([1]; 1 × 10^-6 M) of 40 ± 1 and a percentage of inhibition ([1]; 5 × 10^-6 M) of 88 ± 2. It also gave a percentage of inhibition ([2]; 1 × 10^-4 M) of 49.2 ± 2.3, a percentage of inhibition ([2]; 1 × 10^-5 M) of 32.6 ± 10.1 and a percentage of inhibition ([2]; 5 × 10^-4 M) of 59.1 ± 3.2. For the same compound, the percentage of inhibition ([3]; 1 × 10^-5 M) was 99.9, the percentage of inhibition ([3]; 1 × 10^-6 M) was 78.2 ± 0.9 and the percentage of inhibition ([3]; 1 × 10^-7 M) was 5.2 ± 1. For the same compound, the percentage of inhibition ([3]; 5 × 10^-6 M) was 99.5, the “Change in volume of the foot 1 hour after AA (mean ± s.e.m.)” value (“Change in volume of the foot 1 hour” for short) ([4]; 1 mg/kg oral) was 0.48 ± 0.05 cm^3 and the “Change in volume of the foot 1 hour” value ([4]; 4 mg/kg oral) was 0.43 ± 0.06 cm^3. For the same compound, the “Change in volume of the foot 1 hour” value ([4]; 20 mg/kg oral) was 0.40 ± 0.04 cm^3, the anti-inflammatory activity ([4]; low doses, oral) was “significant anti-inflammatory activity” and the “% inhibition” value ([4]; 1 mg/kg oral) was -17%. The “% inhibition” value ([4]; 4 mg/kg oral) was -27% and the “% inhibition” value ([4]; 20 mg/kg oral) was -31%.

In the case of CN(C)c1ccc([C@H]2C[C@@]3(C)[C@@H](CC[C@@]3(O)C#CCN3CCN(c4cc(N5CCCC5)nc(N5CCCC5)n4)CC3)[C@@H]3CCC4=CC(=O)CCC4=C32)cc1 [Example 2, 11β-[4-(dimethylamino)-phenyl]-17α-[3-{4-[2,6-bis(1-pyrrolidinyl)-4-pyrimidinyl]-1-piperazinyl}-1-propynyl]-Δ^4,9-estradien-17β-ol-3-one methane sulfonate], the percentage of inhibition ([1]; 1 × 10^-5 M) is reported as 91 ± 3, the percentage of inhibition ([1]; 1 × 10^-6 M) is reported as 28 ± 3 and the percentage of inhibition ([1]; 5 × 10^-6 M) is reported as 82 ± 3. The percentage of inhibition ([2]; 1 × 10^-4 M) was 59.6 ± 4.4, the percentage of inhibition ([2]; 1 × 10^-5 M) was 16.0 ± 5.0 and the percentage of inhibition ([2]; 5 × 10^-4 M) was 60.9 ± 3.3. For the same compound, the percentage of inhibition ([3]; 1 × 10^-5 M) was 98.5, the percentage of inhibition ([3]; 1 × 10^-6 M) was 48 ± 1 and the percentage of inhibition ([3]; 5 × 10^-6 M) was 91. The “animals still alive 15 days later (survival rate)” value [5] was 20%.
